Data from patent US20060020004A1, “Isoxazolidine compounds for treatment of bacterial infections” (Infinity Pharmaceuticals, Inc., priority 2004, published 2006).
In brackets after ≈: the same amount, converted by molar mass.

Assays:
[1] = test system: Methicillin resistant S. aureus ATCC 33591; assay: MIC determination, MRSA; assay type: cell-based, Staphylococcus aureus; conditions: MRSA ATCC 33591, 24 h; for MIC: Staphylococcus aureus
Protocol: (§1) Susceptibility testing for bacterial cultures is performed according to the National Council for Clinical Laboratory Standards (NCCLS) protocol M100-S12, “Performance Standards for Antimicrobial Susceptibility Testing.” The bacterial strains recommended by NCCLS were obtained from the American Type Culutre Collection (ATCC) (Table) and were maintained on Mueller Hinton (MHA) agar plates plus or minus 3% lysed horse blood (see Table). The bacteria were grown in Cation adjusted Mueller Hinton Broth (CaMHB) for liquid growth and susceptibility testing. S. cerevisiae (yeast) is grown in yeast peptone dextrose (YPD) media.
(§2) All bacterial cultures were grown at 37 degrees Celsius. Fresh colonies of S. aureus and MRSA were inoculated into liquid media and grown overnight and diluted the next day to grow to mid-log (Table 2). E. faecalis and S. pneumonia mid-log cultures were started directly from colony on plates. To attain mid-log growth, cultures were grown to an optical density (OD) at A590 of 0.2-0.8 (see Table 2) and then diluted to proper OD to obtain 5×10^5 cells/mL.
(§3) Diluted bacterial cultures are added to compound plates with compound diluted 2-fold from 100 μg/mL to 0.2 μg/mL final concentration in DMSO. Control antibiotics are also added: vancomycin, linezolid, and penicillin. In 384 well plates, 0.5 μL compound is added followed by addition of 50 μL of culture. DMSO alone is included as a control. Plates incubated at 37 degrees Celsius for 17-24 h.
(§4) Plates with cells mixed with compounds are incubated for 17 h for S. aureus and yeast, 24 h for MRSA, and all Enterococcus and Streptococcus strains. Yeast plates are incubated […].
(§5) Viability is determined by reading plates at A590 to determine optical density of treated and untreated cells and determining growth inhibition relative to controls.

[2] = test system: Penicillin-res. S. pneumonia ATCC 700671; assay: MIC determination, PRSP; assay type: cell-based, Streptococcus pneumonia; conditions: ATCC 700671, 24 h
Protocol: as §1, §2, §3, §4, §5

[3] = test system: Staphylococcus aureus (Smith) ATCC 19636; assay: MIC determination, S. aureus; assay type: cell-based; conditions: S. aureus ATCC 19636, 17 h; for MIC: Staphylococcus aureus, ATCC19636
Protocol: as §1, §2, §3, §4, §5

Row | SMILES | MIC MRSA [1] | MIC PRSP [2] | MIC S. aureus [3] | MIC [1] | MIC [3]
1 | Cc1ccc(C#Cc2ccc(CN3OC(C(C)O)C(CO)C3C(=O)NCCc3c[nH]c4cc(F)ccc34)cc2)cc1 (centres unmarked) | *** (the MIC is less than 5 μg/mL) | ** (the MIC is 5-90 μg/mL) | *** (the MIC is less than 5 μg/mL) | – | –
2 | Cc1ccc(C#Cc2ccc(CN3O[C@@H]([C@@H](C)O)[C@@H](CO)[C@H]3CNCCc3c[nH]c4ccccc34)cc2)cc1 | – | – | – | < 5 µg/mL | 5 to 90 µg/mL (≈ 9.55 to 172 µM)
3 | CC(O)C1ON(Cc2cccc(-c3ccc(C(C)(C)C)cc3)c2)C(C(=O)NCCc2c[nH]c3ccccc23)C1CO (centres unmarked) | *** (the MIC is less than 5 μg/mL) | ** (the MIC is 5-90 μg/mL) | *** (the MIC is less than 5 μg/mL) | – | –
4 | CCCCCCCCCCCCN1O[C@@H]([C@H](C)O)[C@@H](CO)[C@H]1C(=O)NCCc1c[nH]c2ccccc12 | – | – | – | < 5 µg/mL | < 5 µg/mL
5 | CC(O)C1ON(Cc2cccc(C=Cc3ccc(Cl)cc3)c2)C(C(=O)NCCc2c[nH]c3ccccc23)C1CO (centres unmarked) | *** (the MIC is less than 5 μg/mL) | ** (the MIC is 5-90 μg/mL) | *** (the MIC is less than 5 μg/mL) | – | –
6 | CC(O)C1ON(Cc2ccc(-c3ccc(Cl)cc3)cc2)C(C(=O)NCCc2c[nH]c3ccccc23)C1CO (centres unmarked) | ** (the MIC is 5-90 μg/mL) | ** (the MIC is 5-90 μg/mL) | ** (the MIC is 5-90 μg/mL) | – | –
7 | O=C(NCCc1c[nH]c2ccccc12)C1C(CO)C(CO)ON1Cc1ccc(C#Cc2ccccc2)cc1 (centres unmarked) | ** (the MIC is 5-90 μg/mL) | ** (the MIC is 5-90 μg/mL) | ** (the MIC is 5-90 μg/mL) | – | –
8 | CC(O)C1ON(Cc2cccc(C=Cc3ccccc3)c2)C(C(=O)NCCc2c[nH]c3ccccc23)N1CO (centres unmarked) | ** (the MIC is 5-90 μg/mL) | ** (the MIC is 5-90 μg/mL) | ** (the MIC is 5-90 μg/mL) | – | –
9 | Cc1ccc(C#Cc2ccc(CN3OC(CN)CC3C(=O)NCCc3c[nH]c4ccccc34)cc2)cc1.Cl (centres unmarked) | ** (the MIC is 5-90 μg/mL) | ** (the MIC is 5-90 μg/mL) | ** (the MIC is 5-90 μg/mL) | – | –
10 | CC(O)C1ON(Cc2ccc(-c3cc4ccccc4o3)cc2)C(C(=O)NCCc2c[nH]c3ccccc23)C1CO (centres unmarked) | ** (the MIC is 5-90 μg/mL) | ** (the MIC is 5-90 μg/mL) | ** (the MIC is 5-90 μg/mL) | – | –
11 | Cc1ccc(C#Cc2ccc(CN3OC(C(C)O)C(COC(=O)CN(C)C)C3C(=O)NCCc3c[nH]c4ccccc34)cc2)cc1 (centres unmarked) | ** (the MIC is 5-90 μg/mL) | ** (the MIC is 5-90 μg/mL) | – | – | –
12 | CCCCCCCCN1O[C@@H]([C@H](C)O)[C@@H](CO)[C@H]1C(=O)NCCc1c[nH]c2ccccc12 | – | – | – | 5 to 90 µg/mL (≈ 11.2 to 202 µM) | 5 to 90 µg/mL (≈ 11.2 to 202 µM)
13 | CC(O)C1ON(CCCCCCCCc2ccccc2)C(C(=O)NCCc2c[nH]c3ccccc23)C1CO (centres unmarked) | ** (the MIC is 5-90 μg/mL) | ** (the MIC is 5-90 μg/mL) | – | – | –
14 | Cc1ccc(C#Cc2ccc(CN3OC4CNCC4C3C(=O)NCCc3c[nH]c4ccccc34)cc2)cc1.Cl (centres unmarked) | – | – | – | 5 to 90 µg/mL | 5 to 90 µg/mL
15 | CC(O)C1ON(Cc2ccc(C#Cc3ccc(C(=O)O)cc3)cc2)C(C(=O)NCCc2c[nH]c3ccccc23)C1CO (centres unmarked) | * (the MIC is >90 μg/mL) | * (the MIC is >90 μg/mL) | * (the MIC is >90 μg/mL) | – | –
16 | CC(O)C1ON(Cc2ccc(-c3ccc(C(C)(C)C)cc3)cc2)C(C(=O)NCCc2c[nH]c3ccccc23)C1CO (centres unmarked) | * (the MIC is >90 μg/mL) | ** (the MIC is 5-90 μg/mL) | ** (the MIC is 5-90 μg/mL) | – | –
17 | CCCCCCN1O[C@@H]([C@H](C)O)[C@@H](CO)[C@H]1C(=O)NCCc1c[nH]c2ccccc12 | * (the MIC is >90 μg/mL) | * (the MIC is >90 μg/mL) | * (the MIC is >90 μg/mL) | – | –
18 | Cc1ccc(C#Cc2ccc(CN3OCC(CO)C3C(=O)NCCc3c[nH]c4ccccc34)cc2)cc1 (centres unmarked) [drawing 212] | *** (the MIC is less than 5 μg/mL) | ** (the MIC is 5-90 μg/mL) | – | – | –
